Test [1] concerns Crabgrass (CG). The test can be described thus: Pre-emergence herbicide test. It is filed as in vivo, Digitaria sanquinalis. The note with it: Digitaria sanguinalis, pre-emergence, 336 h; 8 lb/acre; two weeks after treatment. In outline: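 Crabgrass (Digitaria sanquinalis) was surface seeded in 3' plastic pots of potting soil, covered with screened soil, and watered by sub-irrigation in greenhouse trays. Pots were seeded one day before spraying in a hood with a moving belt and fixed nozzle. Plants stayed in the greenhouse on sub-irrigation, and pre-emergence control was rated visually two weeks after treatment.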

Test [2] concerns Yellow foxtail grass (YF). The test can be described thus: Pre-emergence herbicide test. The class given is in vivo, Setaria glauca. To be noted: Setaria, 336 h, 8 lb/acre, two weeks after treatment. The protocol:
(§1) Yellow foxtail grass (YF)--Setaria glauca
(§2) All crop and weed species were planted individually in 3' plastic pots containing potting soil. Four seeds each of corn, cotton, and snapbeans were seeded to a depth equal to the diameter of the seed. All other species were surface seeded and sprinkled with screened soil in an amount sufficient to cover the seed. Immediately after planting, all pots were watered by sub-irrigation in greenhouse trays. Pots for the pre-emergence phase were seeded one day before treatment.
(§3) Compounds were tested at rates of application equivalent to 8 lbs. of actual compound per acre in a spray volume of 38 gallons per acre. Spray hood constants required to deliver the above volume are as follows:
(§4) Formulations for spray applications were prepared in 50 ml volumes with the following three components:
(§5) Formulations for the 4 lbs/acre rate were prepared by adjusting the amount of active ingredient accordingly.
(§6) Spray applications were made in a hood containing a removable belt and fixed spray nozzle. For passage through the spray hood, one pot of each specie (pre-emergence phase) was placed on the rear half of the flat. Treatments were removed to the greenhouse after spraying. Watering during the observation period was done only by sub-irrigation.
(§7) Two weeks after treatment, pre- and post-emergence injury or control was visually rated, and the results were as shown in the following tables. Pre-emergence data are provided in TABLE III and post-emergence data are provided in TABLE IV, for compounds having the formula illustrated in TABLE I. Correspondingly, pre-emergence and post-emergence data, respectively, are set forth in TABLES V AND VI, for compounds having the formula illustrated in TABLE II.

Test [3] deals with Johnson grass (JG). The test can be described thus: Pre-emergence herbicide test. The class given is in vivo, Sorgum helepense. The note with it: Sorghum halepense, 336 h, 8 lb/acre, two weeks after treatment. The procedure, abridged:
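Visual injury or control rating two weeks post-treatment, after pre-emergence spray of 8 or 4 lbs active per acre (38 gal/acre) onto pots sown the previous day. Greenhouse watering by sub-irrigation only.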

For test [4], the system named is Barnyard grass (BG). The test can be described thus: Pre-emergence herbicide test. It is filed as in vivo. To be noted: Echinochloa crus-galli, 336 h, 8 lb/acre, two weeks after treatment. In outline: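 Greenhouse pre-emergence spray test: pots seeded one day before treatment received compound at rates of 8 or 4 lb/acre (38 gal/acre). Visual injury/control scores for Echinochloa crus-galli taken at two weeks, with watering by sub-irrigation only.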

Test [5] concerns Turnip (TP). The test can be described thus: Pre-emergence herbicide test. It is filed as in vivo, Brassica sp. The note with it: Brassica rapa, pre-emergence, 336 h; 8 lb/acre; two weeks after treatment. In outline: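 In this pre-emergence greenhouse test, turnip was seeded on the surface of potting soil in 3' plastic pots, lightly covered with screened soil, and watered from below. One day later the pots were sprayed in a belt-fed spray hood. Watering continued only by sub-irrigation, and percent control was visually scored two weeks after treatment.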

In test [6] the test system is Cotton (CT). The test can be described thus: Pre-emergence herbicide test. The class given is in vivo, Gossypium hirsutum var. DPL smooth leaf. To be noted: Gossypium hirsutum, 336 h, 8 lb/acre, two weeks after treatment. The procedure, abridged: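 Visual injury/control ratings were taken at two weeks post-spray. Pots seeded a day earlier received compound pre-emergence at 8 lbs/acre, or 4 lbs/acre, in a 38 gallon/acre spray volume, and were then held in the greenhouse, watered only from below.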

Test [7] relates to Corn (CN). As to the kind of experiment: Pre-emergence herbicide test. The class given is in vivo. The note with it: Zea mays, 336 h, 8 lb/acre, two weeks after treatment. The procedure, abridged:
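Visual injury/control ratings were made 2 weeks post-spray on corn pots seeded (4 seeds, seed-diameter depth) the day before treatment. Application was a belt-hood spray of 38 gal/acre delivering 8 lbs active per acre, with a 4 lbs/acre rate also formulated. Watering was by sub-irrigation throughout.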

For test [8], the system named is Bean (BN). As to the kind of experiment: Pre-emergence herbicide test. The class given is in vivo, Phaseolus vulgaris var. Black Valentine. The note with it: Phaseolus vulgaris, 336 h, 8 lb/acre, two weeks after treatment. The procedure, abridged: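 Visual injury/control ratings were taken two weeks post-spray on sub-irrigated Phaseolus vulgaris var. Black Valentine. Pots were sown a day before treatment. Pre-emergence spray delivered 8 lbs actual compound per acre (or 4 lbs/acre) at 38 gallons per acre.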

Test [9] concerns Crabgrass (CG). As to the kind of experiment: Post-emergence herbicide test. The class given is in vivo, Digitaria sanquinalis. To be noted: Digitaria sanguinalis, post-emergence, 336 h; 8 lb/acre; two weeks after treatment. In outline: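 Crabgrass (Digitaria sanquinalis) was surface seeded individually in 3' plastic pots of potting soil, covered with screened soil, and watered by sub-irrigation in greenhouse trays. Planting was staggered so seedlings reached the target stage together. Post-emergence sprays were applied in a hood with a removable belt and fixed nozzle, and control was visually rated two weeks after treatment.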

Test [10] concerns Yellow foxtail grass (YF). The test can be described thus: Post-emergence herbicide test. The class given is in vivo, Setaria glauca. The note with it: Setaria, 336 h, 8 lb/acre, two weeks after treatment. The protocol:
as §1, §2
Planting dates for the post-emergence phase were varied so that all seedlings would reach the desired stage of development simultaneously. The proper stage of seedling development for treatment in the post-emergence phase is as follows:
as §3, §4, §5, §6, §7

Test [11] relates to Johnson grass (JG). As to the kind of experiment: Post-emergence herbicide test. It is filed as in vivo, Sorgum helepense. To be noted: Sorghum halepense, 336 h, 8 lb/acre, two weeks after treatment. The procedure, abridged: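 Visual injury or control scores taken 2 weeks after a post-emergence spray of pot-grown plants. Application was 8 lbs/acre (or 4 lbs/acre) in 38 gal/acre. Plants were held in the greenhouse with sub-irrigation only.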

Test [12] relates to Barnyard grass (BG). As to the kind of experiment: Post-emergence herbicide test. To be noted: Echinochloa crus-galli, 336 h, 8 lb/acre, two weeks after treatment. It is filed as in vivo. In outline:
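Greenhouse pot-grown barnyard grass seedlings sprayed post-emergence at 8 lbs active compound per acre (some at 4 lbs/acre) in 38 gallons per acre, then sub-irrigated. Injury or control rated visually two weeks after treatment.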

Test [13] deals with Amaranth pigweed (PW). The test can be described thus: Post-emergence herbicide test. To be noted: 336 h, 8 lb/acre, two weeks after treatment. It is filed as in vivo, Amaranthus retroflexus. The procedure, abridged:
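Visual injury or control ratings were made two weeks after spraying, with greenhouse watering by sub-irrigation only. Treatment was post-emergence, when pigweed seedlings had 1 or 2 true leaves, at 8 lbs active compound per acre (4 lbs/acre formulations also made) in a 38 gallons-per-acre spray volume.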

For test [14], the system named is Turnip (TP). As to the kind of experiment: Post-emergence herbicide test. It is filed as in vivo, Brassica sp. The note with it: Brassica rapa, post-emergence, 336 h; 8 lb/acre; two weeks after treatment. The procedure, abridged:
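A greenhouse post-emergence herbicide test on turnip. Seeds were sown on the surface of potting soil in 3' plastic pots, lightly covered with screened soil and watered from below. Planting was timed so seedlings had 1 or 2 true leaves above the cotyledons at spraying, done in a hood with a fixed nozzle. Control or injury was scored by eye after two weeks.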

Test [15] concerns Cotton (CT). As to the kind of experiment: Post-emergence herbicide test. To be noted: Gossypium hirsutum, post-emergence, 336 h; 8 lb/acre; two weeks after treatment. It is filed as in vivo, Gossypium hirsutum var. DPL smooth leaf. The procedure, abridged: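 This greenhouse post-emergence test measured how well spray treatments controlled cotton. Seedlings of Gossypium hirsutum var. DPL smooth leaf, with expanded cotyledons and a first true leaf 1' in length, were sprayed with 50 ml formulations in a belt-fed spray hood. They were then returned to the greenhouse and watered only by sub-irrigation. Injury was scored visually as % control after two weeks.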

Test [16] concerns Corn (CN). The test can be described thus: Post-emergence herbicide test. The class given is in vivo. The note with it: Zea mays, 336 h, 8 lb/acre, two weeks after treatment. The procedure, abridged:
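Greenhouse seedlings grown in potting soil and sprayed post-emergence at 8 lbs compound/acre (formulations also made for 4 lbs/acre) in 38 gallons/acre spray volume. Watering by sub-irrigation only. Injury or control rated visually two weeks after treatment.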

In test [17] the test system is Bean (BN). As to the kind of experiment: Post-emergence herbicide test. It is filed as in vivo, Phaseolus vulgaris var. Black Valentine. To be noted: Phaseolus vulgaris, post-emergence, 336 h; 8 lb/acre; two weeks after treatment. The procedure, abridged:
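Bean seedlings (Phaseolus vulgaris var. Black Valentine) were grown in potting soil in 3' pots until the primary leaves expanded. They were then sprayed under a hood with a removable belt and fixed nozzle, using 50 ml formulations. Afterward they were returned to the greenhouse and watered only by sub-irrigation. Percent control was judged visually two weeks after treatment.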

Test [18] concerns Amaranth pigweed (PW). As to the kind of experiment: Pre-emergence herbicide test. The note with it: 336 h, 8 lb/acre, two weeks after treatment. It is filed as in vivo, Amaranthus retroflexus. The procedure, abridged:
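Visual injury or control ratings were made at two weeks on pre-emergence pots, sub-irrigated in the greenhouse. Seeds were sown a day before a hood spray delivering 8 lbs/acre (or 4 lbs/acre) of compound in 38 gallons per acre.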

`CC(C)NC(=O)Nc1nnc(C(F)(F)F)s1` [Example 11]: the pest or weed control at 8966.8 g/ha was found to be 20% in the test with Crabgrass (CG) [1]; 10% in test [2]; 30% with Johnson grass (JG) [3]; 10% in the test on Barnyard grass (BG) [4]; 10% in the test on Turnip (TP) [5]; 80% in the test on Cotton (CT) [6]. Also, the pest or weed control at 8966.8 g/ha in the test with Corn (CN) [7] worked out at 80%; in the test with Bean (BN) [8], 30%; with Crabgrass (CG) [9], 50%; in test [10], 20%; in the test on Johnson grass (JG) [11] it was 30%; with Barnyard grass (BG) [12], 40%. Also, the pest or weed control at 8966.8 g/ha was 100% in the test on Amaranth pigweed (PW) [13]; 60% with Turnip (TP) [14]; 60% in the test on Cotton (CT) [15]; 40% with Corn (CN) [16]; 50% in the test with Bean (BN) [17].

Take `CNC(=O)Nc1nnc(OC)s1` [Example 24]: the pest or weed control at 8966.8 g/ha is 10% in the test on Crabgrass (CG) [1]; 10% in test [2]; 10% with Johnson grass (JG) [3]; 10% in the test with Barnyard grass (BG) [4]; 60% in the test on Amaranth pigweed (PW) [18]; 10% in the test with Turnip (TP) [5]. For the same compound, the pest or weed control at 8966.8 g/ha with Cotton (CT) [6] amounted to 10%; with Corn (CN) [7] it was 30%; in the test with Bean (BN) [8], 60%; with Crabgrass (CG) [9], 30%; in [10] it was 20%; with Johnson grass (JG) [11], 20%. Besides, the pest or weed control at 8966.8 g/ha with Barnyard grass (BG) [12] came to 20%; in the test on Amaranth pigweed (PW) [13], 90%; with Turnip (TP) [14], 60%; with Cotton (CT) [15], 70%; in the test with Corn (CN) [16], 20%.

As to `CSc1nnc(NC(=O)NC(C)C)s1` [Example 30], the pest or weed control at 8966.8 g/ha was 20% in the test with Crabgrass (CG) [1]; 10% in [2]; 10% in the test with Johnson grass (JG) [3]; 10% in the test with Barnyard grass (BG) [4]; 10% in the test with Amaranth pigweed (PW) [18]; 10% with Cotton (CT) [6]. The pest or weed control at 8966.8 g/ha in the test with Corn (CN) [7] is 10%; in the test on Bean (BN) [8] it was 50%; with Crabgrass (CG) [9] it was 20%; in test [10], 20%; in the test with Johnson grass (JG) [11], 20%; with Barnyard grass (BG) [12], 20%. Also, the pest or weed control at 8966.8 g/ha in the test on Amaranth pigweed (PW) [13] was found to be 50%; with Turnip (TP) [14], 40%; in the test with Cotton (CT) [15] it was 70%; in the test with Corn (CN) [16], 20%; in the test on Bean (BN) [17], 100%.

For `CNC(=O)Nc1nnc(-c2ccccc2)s1` [Example 34], the pest or weed control at 8966.8 g/ha in the test with Crabgrass (CG) [1] worked out at 10%; in test [2], 20%; in the test on Johnson grass (JG) [3], 20%; in the test with Barnyard grass (BG) [4], 10%; in the test with Turnip (TP) [5], 20%; in the test with Cotton (CT) [6], 40%. In addition, the pest or weed control at 8966.8 g/ha in the test on Corn (CN) [7] turned out to be 10%; in the test with Bean (BN) [8], 80%; in the test on Crabgrass (CG) [9], 10%; in test [10] it was 30%; in the test with Johnson grass (JG) [11], 30%; with Barnyard grass (BG) [12] it was 10%. The pest or weed control at 8966.8 g/ha in the test on Amaranth pigweed (PW) [13] came to 20%; in the test on Turnip (TP) [14], 40%; in the test with Cotton (CT) [15] it was 50%; in the test with Corn (CN) [16], 50%; in the test with Bean (BN) [17], 60%.

With `CNC(=O)Nc1nnc(-c2ccc(Cl)cc2)s1` [Example 71], the pest or weed control at 8966.8 g/ha with Crabgrass (CG) [1] was determined as 0%; in [2], 0%; in the test on Johnson grass (JG) [3], 0%; with Barnyard grass (BG) [4] it was 20%; in the test on Turnip (TP) [5], 0%; in the test on Cotton (CT) [6] it was 90%. The pest or weed control at 8966.8 g/ha with Corn (CN) [7] came out at 0%; with Bean (BN) [8] it was 50%; in the test on Crabgrass (CG) [9] it was 20%; in [10], 30%; with Johnson grass (JG) [11], 20%; in the test on Barnyard grass (BG) [12], 20%. In addition, the pest or weed control at 8966.8 g/ha with Amaranth pigweed (PW) [13] was determined as 20%; in the test with Turnip (TP) [14], 20%; in the test with Cotton (CT) [15] it was 0%; in the test on Corn (CN) [16], 0%; in the test on Bean (BN) [17] it was 50%.

For the origin of these results see patent publication US4175081A, “5-Substituted thiadiazole ureas” (priority 1977, dated 1979).
